Experimental data from patent publication US8263643B2, “Polyphenol compounds with modulating neurotransmitter release” (Sungkyunkwan University Foundation for Corporate …, priority 2007, dated 2012).
Read-outs that look alike come from different tables or passages of the source. Marks after values point to notes of the source that are not given here.

Legend:
[1] = target: T1, SNARE complex (SNAP25, SynH3, Vps) (UniProt P60879+P63045+Q16623); experiment: SDS-PAGE analysis of SNARE complex formation; type: biochemical; details: for SNARE complex formation (%): control = 100, footnote: [phenolic compound]:SNAP-25 = 1:1, SNARE proteins 10 μM each, polyphenol 100 μM, room temperature 30 min; for Inhibition of SNARE complex formation (in words): FIG. 2, concentration series; for Ratio for inhibition by 50% (IR50), SNARE complex formation: molar concentration ratio phenolic compound:SNAP-25, average of at least three measurements
T1 construct: SynH3 (AF217197); Vps (NM012663); made in house; host or cells: E. coli (Codon (+) RIL, Novagen)
Method: A SNARE complex is strong enough so as not to be untwisted by SDS. On the basis of such a property, a SDS-PAGE analysis was performed in order to determine the formation of a SNARE complex. Polyphenol compounds used in the present Example were purchased from Sigma-Aldrich, Wako Chemical, and Extrasynthese.
In order to produce SNARE proteins, SNARE proteins, such as, SNAP25 (NM011428), syntaxin 1A (AF217197), VAMP2 (NM012663), SynH3 (AF217197), and Vps (NM012663), were purified in biologically transformed E. coli (Codon (+) RIL, Novagen).
Then, the materials were quickly mixed by a vortex, and were reacted at room temperature for 30 minutes. […]

[2] = target: T2, membrane fusion caused by SNARE (SNAP25, syntaxin 1A, VAMP2) (UniProt P60879+P63045+Q16623); experiment: Membrane fusion assay with SNARE-reconstituted liposomes (fluorescence); type: biochemical; details: for remaining activity at 20 µM: read-out: Membrane fusion caused by SNARE (% of fusion without inhibitor); for Reduction of membrane fusion (in words): FIG. 3; for Ratio for inhibition by 50% (IR50), membrane fusion: molar concentration ratio phenolic compound:SNAP-25, average of at least three measurements
T2 construct: made in house; host or cells: E. coli (Codon (+) RIL, Novagen)
Method: In order to produce SNARE proteins, SNARE proteins, such as SNAP25 (NM011428), syntaxin 1A (AF217197), and VAMP2 (NM012663), were purified in biologically transformed E. coli (Codon (+) RIL, Novagen).
In order to prepare liposome (fine membrane) marked with a fluorescent substance, POPC (62 mol %), DOPS (35 mol %), NBD-PS (1.5 mol %) and a fluorescent substance Rhodamin-PE (1.5 mol %) were mixed to obtain 10 mM of liposome (v-vesicle). Also, in order to prepare a liposome not marked with a fluorescent substance, DOPS and POPC were mixed in a molar concentration ratio of 35:65 to obtain 50 mM of liposome (t-vesicle). In order to prepare a complex of the purified SNAP25 and syntaxin 1a, the SNAP25 and the syntaxin 1a were mixed in a molar concentration ratio of 1:1, and then were reacted at room temperature for 1 hour. Then, the resultant mixture and the liposome not marked with a fluorescent substance were mixed in a molar ratio of 100:1. The VAMP2 and the liposome marked with a fluorescent substance were mixed in a molar ratio of 50:1. Then, each of the two kinds of liposomes was dialyzed by using 10 kDa dialyzing membrane through agitation at 4° C. for 24 hours, and the liposomes were mixed in a ratio of 3:7 (v-vesicle t-visicle). Next, fluorescence was measured by using a fluorometer (SpectraMax M2 manufactured by Molecular Device).
Herein, 100% indicates the degree of membrane fusion in the state where no inhibitor was added. As the value is smaller, the inhibiting degree is higher.

[3] = 20 μM phenolic compound, 100% = no inhibitor added

T2 sequence (P60879 whole entry, the tested form may be a part): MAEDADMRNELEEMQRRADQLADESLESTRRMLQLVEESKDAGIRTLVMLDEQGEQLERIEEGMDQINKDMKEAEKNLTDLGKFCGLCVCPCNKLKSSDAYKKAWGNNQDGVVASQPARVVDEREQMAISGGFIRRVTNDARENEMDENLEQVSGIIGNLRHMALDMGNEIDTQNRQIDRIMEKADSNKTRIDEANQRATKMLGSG
T2 sequence (Q16623 whole entry, the tested form may be a part): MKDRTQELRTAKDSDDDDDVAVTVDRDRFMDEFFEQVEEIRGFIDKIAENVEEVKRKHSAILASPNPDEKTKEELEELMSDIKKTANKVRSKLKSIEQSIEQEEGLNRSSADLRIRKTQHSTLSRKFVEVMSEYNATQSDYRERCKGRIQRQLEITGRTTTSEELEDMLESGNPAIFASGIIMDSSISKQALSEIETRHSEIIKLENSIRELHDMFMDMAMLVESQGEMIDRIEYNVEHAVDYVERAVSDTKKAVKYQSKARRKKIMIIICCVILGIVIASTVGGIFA
T2 sequence (P63045 whole entry, the tested form may be a part): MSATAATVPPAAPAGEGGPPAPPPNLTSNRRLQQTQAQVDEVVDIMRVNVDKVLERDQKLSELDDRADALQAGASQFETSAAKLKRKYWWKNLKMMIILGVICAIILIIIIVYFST
T1 sequence (P60879 whole entry): as the sequence (P60879 whole entry, the tested form may be a part) above
T1 sequence (Q16623 192-254 limits assumed): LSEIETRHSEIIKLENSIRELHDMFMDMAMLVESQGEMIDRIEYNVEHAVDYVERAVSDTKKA
T1 sequence (P63045 2-94 limits assumed): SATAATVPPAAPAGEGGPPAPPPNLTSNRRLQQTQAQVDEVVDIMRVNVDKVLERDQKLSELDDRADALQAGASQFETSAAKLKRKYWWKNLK

| Structure (SMILES) | SNARE complex formation (%) [1] [%] | remaining activity at 20 µM [2, 3] [%] | further results |
| --- | --- | --- | --- |
| COc1cc(C(=O)O)ccc1O [Vanillic acid] | 97.23 ± 5.70 | 99.6 ± 7.63 | – |
| COc1cc2c(c(OC)c1OC)-c1c(cc(OC)c(OC)c1OC)C[C@](C)(O)[C@@H](C)C2 [Schizandrin] | 107.60 ± 13.30 | 116 ± 5.52 | – |
| COc1ccc([C@@H]2CC(=O)c3c(O)cc(O)cc3O2)cc1O [Hesperetin] | 114.55 ± 5.00 | 107 ± 2.29 | – |
| O=c1c(O)c(-c2ccc(O)c(O)c2)oc2cc(O)ccc12 [Fisetin] | 90.14 ± 10.42 | 32.1 ± 4.14 | – |
| C[C@@H]1O[C@@H](Oc2c(-c3ccc(O)c(O)c3)oc3cc(O)cc(O)c3c2=O)[C@H](O)[C@H](O)[C@H]1O [Quercitrin] | 92.18 ± 9.59 | 86 ± 26.1 | – |
| O=C(O)/C=C/c1ccc(O)cc1 [p-Coumaric acid] | 91.21 ± 11.99 | 123 ± 14.3 | – |
| O=c1c(-c2ccc(O)cc2)coc2cc(O)ccc12 [Daidzein] | 104.06 ± 24.43 | 113 ± 13.1 | – |
| C[C@@H]1O[C@@H](OC[C@H]2O[C@@H](Oc3c(-c4ccc(O)c(O)c4)oc4cc(O)cc(O)c4c3=O)[C@H](O)[C@@H](O)[C@@H]2O)[C@H](O)[C@H](O)[C@H]1O [Rutin] | 92.86 ± 9.53 | 96.7 ± 10.6 | – |
| O=c1c(O)c(-c2ccc(O[C@@H]3O[C@H](CO)[C@@H](O)[C@H](O)[C@H]3O)c(O)c2)oc2cc(O)cc(O)c12 [Spiraeoside] | – | 107 ± 6.72 | – |
| O=C(/C=C/c1ccc(O)c(O)c1)O[C@@H]1C[C@](O)(C(=O)O)C[C@@H](O)[C@H]1O [Chlorogenic acid] | 100.78 ± 13.62 | 134 ± 1.49 | – |
| O=C(O)/C=C/c1ccc(O)c(O)c1 [Caffeic acid] | 93.33 ± 12.20 | 125 ± 7.45 | – |
| O=c1cc(-c2ccccc2)oc2cc(O)cc(O)c12 [Chrysin] | 98.12 ± 6.56 | 121 ± 1.27 | – |
| O=c1c(-c2ccc(O)cc2)coc2cc(O)cc(O)c12 [Genistein] | 96.76 ± 8.91 | 119 ± 18.1 | – |
| Oc1cc(O)c2c(c1)O[C@H](c1ccc(O)c(O)c1)[C@@H](O)C2 [(+)-Catechin] | 105.02 ± 11.37 | – | Membrane fusion caused by SNARE (% of fusion without inhibitor) [2, 3]: 89.15 ± 1.19% |
| Oc1cc(O)c2cc(O)c(-c3ccc(O)c(O)c3)[o+]c2c1 [Cyanidin] | 67.12 ± 20.31 | 7.23 ± 1.08 | – |
| COc1ccc([C@@H]2CC(=O)c3c(O)cc(O[C@@H]4O[C@H](CO[C@@H]5O[C@@H](C)[C@H](O)[C@@H](O)[C@H]5O)[C@@H](O)[C@H](O)[C@H]4O)cc3O2)cc1O [Hesperidin] | 112.38 ± 10.43 | – | Membrane fusion caused by SNARE (% of fusion without inhibitor) [2, 3]: 124.11 ± 15.01% |
| O=c1oc2c(O)c(O)cc3c(=O)oc4c(O)c(O)cc1c4c23 [Ellagic acid] | 87.54 ± 9.50 | 22 ± 2.05 | Inhibition of SNARE complex formation (in words) [1]: inhibit the formation of a SNARE complex by 50% at a low concentration; Ratio for inhibition by 50% (IR50), SNARE complex formation [1]: 27.8; Reduction of membrane fusion (in words) [2]: can reduce membrane fusion; Ratio for inhibition by 50% (IR50), membrane fusion [2]: 7.31 |
| O=c1c(O)c(-c2ccc(O)cc2)oc2cc(O)cc(O)c12 [Kaempferol] | 100.13 ± 7.16 | 108 ± 5 | Inhibition of SNARE complex formation (in words) [1]: inhibit the formation of a SNARE complex by 50% at a low concentration; Ratio for inhibition by 50% (IR50), SNARE complex formation [1]: >60^b; Reduction of membrane fusion (in words) [2]: can reduce membrane fusion; Ratio for inhibition by 50% (IR50), membrane fusion [2]: >20^b |
| COc1cc2c(c(OC)c1OC)-c1c(cc3c(c1OC)OCO3)C[C@H](C)[C@](C)(O)C2 [Gomisin A] | 97.99 ± 0.87 | – | Membrane fusion caused by SNARE (% of fusion without inhibitor) [2, 3]: 79.63 ± 7.58% |

| Structure (SMILES) | SNARE complex formation (%) [1] [%] | remaining activity at 20 µM [2, 3] [%] | further results |
| --- | --- | --- | --- |
| Oc1ccc(-c2[o+]c3cc(O)cc(O)c3cc2O)cc1 [Pelargonidin] | 95.61 ± 3.10 | 92.4 ± 3.38 | – |
| C[C@@H]1O[C@@H](O[C@H]2[C@H](Oc3cc(O)c4c(c3)O[C@H](c3ccc(O)cc3)CC4=O)O[C@H](CO)[C@@H](O)[C@@H]2O)[C@H](O)[C@H](O)[C@H]1O [Naringin] | 105.02 ± 11.37 | 107 ± 2.89 | – |
| O=C1c2c(O)cc(O)cc2O[C@H](c2ccc(O)c(O)c2)[C@H]1O [Taxifolin] | – | 109 ± 3.92 | – |
| COc1cc2c(c(OC)c1OC)-c1c(cc3c(c1OC)OCO3)C[C@H](C)[C@H](C)C2 [Gomisiin N] | 99.04 ± 5.17 | – | Membrane fusion caused by SNARE (% of fusion without inhibitor) [2, 3]: 92.31 ± 2.37% |
| COc1cc(/C=C/C(=O)O)ccc1O [Ferulic acid] | 93.38 ± 14.39 | 118 ± 2.79 | – |
| Oc1cc(O)c2cc(O)c(-c3cc(O)c(O)c(O)c3)[o+]c2c1 [Delphinidin] | 60.53 ± 18.88 | 37.5 ± 3.45 | – |
| O=C(CCc1ccc(O)cc1)c1c(O)cc(O)cc1O[C@@H]1O[C@H](CO)[C@@H](O)[C@H](O)[C@H]1O [Phloridzin] | 115.19 ± 23.74 | 86.3 ± 3.87 | – |
| COc1cc(C(=O)O)cc(OC)c1O [Syringic acid] | 92.25 ± 5.92 | 78.2 ± 2.47 | – |
| O=c1cc(-c2ccc(O)cc2)oc2cc(O)cc(O)c12 [Apigenin] | 96.94 ± 7.99 | 96.9 ± 7.99 | – |
| O=c1c(O)c(-c2ccc(O)c(O)c2)oc2c(O[C@@H]3O[C@H](CO)[C@@H](O)[C@H](O)[C@H]3O)c(O)cc(O)c12 [Gossypin] | – | – | Membrane fusion caused by SNARE (% of fusion without inhibitor) [2, 3]: 103.19 ± 9.01% |
| O=c1cc(-c2ccc(O)c(O)c2)oc2cc(O)cc(O)c12 [Luteolin] | 86.23 ± 8.14 | 65.5 ± 2.09 | Ratio for inhibition by 50% (IR50), SNARE complex formation [1]: 38.2; Reduction of membrane fusion (in words) [2]: can reduce membrane fusion; Ratio for inhibition by 50% (IR50), membrane fusion [2]: 4.02 |
| O=C(O[C@@H]1Cc2c(O)cc(O)cc2O[C@@H]1c1cc(O)c(O)c(O)c1)c1cc(O)c(O)c(O)c1 [EGCG, Epigallocatechin gallate] | 112.38 ± 10.43 | – | Membrane fusion caused by SNARE (% of fusion without inhibitor) [2, 3]: 57.59 ± 3.39 % |
| COc1cc(-c2[o+]c3cc(O)cc(O)c3cc2O)cc(OC)c1O [Malvidin] | 97.42 ± 6.31 | – | remaining activity at 20 µM [2]: 116 ± 5.97% |
| O=c1c(O)c(-c2ccc(O)c(O)c2)oc2cc(O)cc(O)c12 [Quercetin] | 79.80 ± 10.77 | 33.4 ± 2.24 | Inhibition of SNARE complex formation (in words) [1]: inhibit the formation of a SNARE complex by 50% at a low concentration; Ratio for inhibition by 50% (IR50), SNARE complex formation [1]: 24.9; Reduction of membrane fusion (in words) [2]: can reduce membrane fusion; Ratio for inhibition by 50% (IR50), membrane fusion [2]: 2.87 |
| Oc1cc(O)c2c(c1)O[C@H](c1ccc(O)c(O)c1)[C@H](O)C2 [(−)-Epicatechin] | 114.55 ± 5.00 | – | Membrane fusion caused by SNARE (% of fusion without inhibitor) [2, 3]: 97.98 ± 1.50% |
| O=C(O)c1ccc(O)c(O)c1 [Protocatechuic acid] | 98.38 ± 4.56 | 104 ± 8.19 | – |
| O=C(O)c1cc(O)ccc1O [Gentisic acid] | 100.16 ± 2.19 | 96.7 ± 2.38 | – |
| O=C(O)/C=C/c1ccccc1 [Trans-cinnamic acid] | 106.78 ± 30.15 | 108 ± 10.6 | – |
